Measurements reported in US11752111B2, “Use of cannabidivarin in the treatment of autism spectrum disorder, associated disorders and schizophrenia” (GW Research Limited, priority 2016, dated 2023).

Columns and labels:
PCP-treated rats [1] = assay: Social interaction test, sub-chronic PCP model of schizophrenia; assay type: in vivo, rat
Experimental: (§1) Female hooded-Lister rats were used for this experiment. Rats were housed in groups of 5 under standard laboratory conditions under a 12 hr light: dark cycle, lights on at 0700 hr. Testing was carried out in the light phase.
(§2) Rats were randomly assigned to two treatment groups and treated with vehicle, n=20 (distilled water, i.p.) or Phencyclidine hydrochloride (PCP), n=100 (2 mg/kg, i.p. twice daily for 7-days). PCP was dissolved in distilled water. This was followed by a 7-day wash out period before the rats were tested following acute treatment with CBDV, risperidone or vehicle.
(§3) Risperidone (0.1 mg/kg) was dissolved in a minimum volume of acetic acid, made up to volume with distilled water and pH adjusted to 6 with 0.1M NaOH and administered via the i.p. route in a volume of 1 ml/kg, 60 min prior to testing.
(§4) CBDV at 2, 10 or 20 mg/kg was dissolved in 2:1:17 (Ethanol:Cremofor:Saline 0.9%) and administered via the i.p. route in a volume of 5 ml/kg, 60 min prior to testing.
The social interaction test is performed in an open-field comprising a square box made of Plexiglas (52×52×31 cm) placed 27 cm above the floor on a moveable trolley. The floor of the box is white with black gridlines forming 9 identical squares on it. All other walls are black. A video camera connected to a video recorder and monitor is positioned above the box. The object used for the test consists of a heavy structure made of metal that cannot be displaced by the animals.
The rats were habituated to the test environment and arena prior to the test day. Habituation consists of placing all rats from one cage together in the empty test arena for one hour for three days including the day before the test day.
Pairs of rats, weight matched (15-20 g) and unfamiliar to each other, receiving either no treatment (n=70 “conspecific” rats) or different treatments (PCP and Vehicle; n=10 “tested” rats or PCP+Drug; n=50 “tested” rats) were placed in the test arena together for 10 min and behaviour assessed as described below.
An inanimate object such as an unopened drinks can is also placed in the centre of the arena to measure any differences in interaction of the test animal with an unfamiliar animal as opposed to an unfamiliar object. After each 10 minute trial, the object and arena are cleaned with 10% alcohol in an attempt to remove traces of any olfactory cues. All testing is carried out under standard room illumination levels (70 cd/m2).
Behaviour in both trials was recorded on video for subsequent blind scoring. A behavioural scoring software program (Hindsight, Scientific programming services) is used to score the following parameters: • Investigative sniffing behaviour: sniffing the conspecific's snout or parts of the body including the anogenital region; • Following: rat moves after the conspecific i.e. a vehicle treated rat of the same species, around the arena; • Avoidances: actively turning away when approached by the conspecific animal; • Investigation of object: exploration of object placed in centre of the arena; and • Locomotor activity is recorded by counting the total number of sectors (i.e. lines) crossed by the test rat. Results

PCP-treated rats [2] = assay: Novel object recognition test, sub-chronic PCP model of schizophrenia; assay type: in vivo, rat; conditions: risperidone 0.1 mg/kg i.p. 60 min prior to testing
Experimental: as §1, §2, §3, §4
Rats were allowed to habituate to the empty test box and the behavioural test room environment for 1h on day 1. Prior to behavioural testing on day 2 rats are given a further 3 min habituation.
Following the 3 min habituation period, the rats are given two 3 min trials (T1 and T2) which are separated by a 1 min inter-trial interval in the home cage during which the objects are changed. Behaviour in all trials was recorded on video for subsequent blind scoring.
In this trial, the animals are allowed to explore two identical objects (A1 and A2) for 3 min.
In this trial, the animals explore a familiar object (A) from T1 and a novel object (B) for 3 min. The familiar object presented during T2 is a duplicate of the object presented in T1 in order to avoid any olfactory trails.
The object exploration is defined by animals licking, sniffing or touching the object with the forepaws whilst sniffing, but not leaning against, turning around, standing or sitting on the object. The exploration time (s) of each object (A, B, familiar and novel) in each trial are recorded using two stopwatches and the following factors are calculated:
Discrimination index (DI), which is calculated as shown below: […]

PCP-treated rats [3] = conditions: background statement; cited from earlier work

**Q.** Which results are given for `Cc1nc2n(c(=O)c1CCN1CCC(c3noc4cc(F)ccc34)CC1)CCCC2` [risperidone, reference compound]?
**A.** PCP effects on social interaction (sniffing, following, avoiding) (FIG. 18) (PCP-treated rats [1]; risperidone 0.1 mg/kg i.p.): reverse these effects in a statistically significant manner; time spent following the other rat (FIG. 18B) (PCP-treated rats [1]; risperidone 0.1 mg/kg, time increased over PCP alone): not seen to be significant; time spent investigating two identical objects in Trial 1 (FIG. 16A) (PCP-treated rats [2]): no real preference; PCP-induced deficit in the novel object recognition (NOR) test (PCP-treated rats [3]): can attenuate the deficit
